Experimental findings from patent US20250064773A1, “TARGETING ERO1 ALPHA WITH AURONE DERIVATIVES” (West Virginia University Board of Governors on behalf of …, priority 2021, published 2025) are described below.

Where two headings read alike, the source gives them in different places.

One assay has as its target T1, purified human ERO1α (Homo sapiens, UniProt Q96HE7, C104A/C131A/C166A).
T1 construct: made in house
T1 sequence (Q96HE7 22-468 C104A/C131A/C166A): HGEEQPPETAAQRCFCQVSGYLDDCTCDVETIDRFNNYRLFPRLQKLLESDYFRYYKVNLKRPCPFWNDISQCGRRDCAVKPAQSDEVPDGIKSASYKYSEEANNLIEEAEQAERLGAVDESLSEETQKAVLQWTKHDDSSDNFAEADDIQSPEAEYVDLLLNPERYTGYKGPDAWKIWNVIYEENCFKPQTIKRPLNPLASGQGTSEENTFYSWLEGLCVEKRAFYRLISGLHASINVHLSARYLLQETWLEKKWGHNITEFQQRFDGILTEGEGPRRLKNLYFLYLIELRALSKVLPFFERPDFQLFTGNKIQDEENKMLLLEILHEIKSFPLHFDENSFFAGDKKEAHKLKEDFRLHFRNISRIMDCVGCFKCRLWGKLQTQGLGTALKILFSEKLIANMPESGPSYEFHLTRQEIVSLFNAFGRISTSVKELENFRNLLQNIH
In words: Lineweaver-Burk enzyme kinetics with varying PDI (Amplex Red). The settings on record: varying PDI and T151742 concentrations. It counts as biochemical.

Assay [1] relates to PC-9 non-small cell lung cancer cell line. In words: MTT viability assay, PC-9. The assay is classed as cell-based. Conditions: 72 hours. How it is done: We utilized an MTT assay to determine the potency of the compounds for inhibiting cell growth. […] We next asked whether T151742 induced inhibition of cell growth was dependent on ERO1α expression. As shown in FIG. 6C two ERO1α deleted clones in the PC-9 cell line were isolated. Using an MTT assay to determine overall cellar viability, a non-targeted control (scramble), and both ERO1α knockout clones was subjected to treatment with T151742 for 72 hours (See FIG. 6D). […] Though only slight differences were observed between T151742 and EN-460 we tested the effects of these compounds in a clonogenic assay which is a better test for inhibition of self-renewal.
Cell Lines: PC-9 cell line used was obtained from Sigma Aldrich and grown in RPMI 1640 medium with 10% fetal bovine serum and 1% penicillin/streptomycin. HCC4006, U266, MM1.s, and Beas-2B cell lines were obtained from ATCC and cultured in either RPMI 1640 or DMEM with 10% fetal bovine serum and 1% penicillin/streptomycin. All cell lines were also checked for mycoplasma every six months and subjected to short tandem repeat (STR) analysis for cell line validation. CRISPR Cas9: CRISPR Guide RNA 2 targeting ERO1α and CRISPR Guide RNA 4 were purchased from Genscript in the pLentiCRISPR V2 plasmid containing puromycin/ampicillin selection marker. Lentivirus was made from HEK 293T cells by co-transfection with GuideRNA of interest, pVSVG, and pPAX2 plasmids. Lentivirus was collected after 48 hours and concentrated using 40% PEG8000. […] Plate was then read on the BioTek Cytation 5 at 530/590 nm. […] Plate was then read at 570 nm. Treated wells were all compared to DMSO control wells to calculate percent growth inhibition and the IC50 was calculated using GraphPad (log(inhibitor) vs growth inhibition). […] Images were then quantified using ImageJ. […] Cells were aliquoted at 1 million cells per PCR tube in PBS and heated in Bio-Rad T100 thermal cycler at indicated temperatures (RT, 46° C., 48° C., 50° C., 52° C., 54° C., 56°, 58° C., and 60° C.) for 3 minutes and aggregation temperature was determined by western blot analysis. […]

With `CN(C)c1ccc(/C=C2\Oc3cc(O)ccc3C2=O)cc1` [Compound T151742], at purified human ERO1α, the “mechanism of inhibition of ERO1α” value is “non-competitive (mixed) inhibitor”. Moreover, the half-inhibitory concentration (IC50) in assay [1] (read-out: IC50, MTT assay, PC-9) is 14.1 ± 3.99 µM; in assay [1] (non-targeted control (scramble), read-out: IC50, MTT assay, PC-9 WT), 14.1 µM.
